What all share (experiment): KINOMEscan
What all share (type): binding
What all share (conditions): read-out: % control activity remaining

One assay concerns the target T1, FYN (Homo sapiens, UniProt P06241).
T1 construct: purchased Eurofins DiscoverX KINOMEscan

For the next assay, the target named is T2, CSNK1G3 (Homo sapiens, UniProt Q9Y6M4).
T2 construct: purchased Eurofins DiscoverX KINOMEscan

The target of the next assay is T3, EPHA3 (Homo sapiens, UniProt P29320).
T3 construct: purchased Eurofins DiscoverX KINOMEscan
T3 sequence (P29320 21-983): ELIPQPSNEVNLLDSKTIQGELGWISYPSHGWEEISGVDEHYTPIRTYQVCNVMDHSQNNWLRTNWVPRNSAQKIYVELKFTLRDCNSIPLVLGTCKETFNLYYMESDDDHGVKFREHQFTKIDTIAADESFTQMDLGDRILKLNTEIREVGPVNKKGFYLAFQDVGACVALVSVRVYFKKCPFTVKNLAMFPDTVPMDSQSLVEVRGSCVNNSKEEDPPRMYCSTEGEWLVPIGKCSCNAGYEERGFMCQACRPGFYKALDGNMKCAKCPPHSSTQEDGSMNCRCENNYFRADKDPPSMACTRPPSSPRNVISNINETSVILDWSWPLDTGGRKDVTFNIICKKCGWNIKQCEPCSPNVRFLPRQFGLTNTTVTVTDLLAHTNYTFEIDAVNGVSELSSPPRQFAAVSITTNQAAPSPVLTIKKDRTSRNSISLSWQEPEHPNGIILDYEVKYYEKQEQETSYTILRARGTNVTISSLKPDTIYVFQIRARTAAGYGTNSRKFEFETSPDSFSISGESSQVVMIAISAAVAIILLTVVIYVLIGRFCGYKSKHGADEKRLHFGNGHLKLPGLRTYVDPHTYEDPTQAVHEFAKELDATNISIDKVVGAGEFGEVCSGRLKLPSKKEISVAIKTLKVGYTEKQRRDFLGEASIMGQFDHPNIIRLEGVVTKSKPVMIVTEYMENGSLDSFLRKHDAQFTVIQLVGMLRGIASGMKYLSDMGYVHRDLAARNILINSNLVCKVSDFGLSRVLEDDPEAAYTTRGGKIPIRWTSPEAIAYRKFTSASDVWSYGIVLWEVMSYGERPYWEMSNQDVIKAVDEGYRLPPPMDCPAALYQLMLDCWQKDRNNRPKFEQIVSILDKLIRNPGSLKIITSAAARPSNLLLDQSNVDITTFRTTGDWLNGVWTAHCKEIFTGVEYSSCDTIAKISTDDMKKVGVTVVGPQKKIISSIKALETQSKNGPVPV

The next assay deals with T4, SGK (Homo sapiens, UniProt O00141).
T4 construct: purchased Eurofins DiscoverX KINOMEscan
T4 sequence (O00141 1-431): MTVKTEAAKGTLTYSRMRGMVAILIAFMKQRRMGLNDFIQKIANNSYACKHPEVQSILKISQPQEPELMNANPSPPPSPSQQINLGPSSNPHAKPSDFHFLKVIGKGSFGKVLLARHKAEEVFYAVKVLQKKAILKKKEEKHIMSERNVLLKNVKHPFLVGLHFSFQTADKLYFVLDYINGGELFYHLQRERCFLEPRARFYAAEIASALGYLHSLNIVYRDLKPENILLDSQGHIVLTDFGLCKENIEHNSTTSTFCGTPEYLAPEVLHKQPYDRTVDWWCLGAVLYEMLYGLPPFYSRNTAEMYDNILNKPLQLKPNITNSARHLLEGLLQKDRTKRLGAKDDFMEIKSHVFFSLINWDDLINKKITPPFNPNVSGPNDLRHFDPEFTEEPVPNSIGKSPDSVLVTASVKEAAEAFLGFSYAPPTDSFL

For a further assay, the target named is T5, MARK2 (Homo sapiens, UniProt Q7KZI7).
T5 construct: purchased Eurofins DiscoverX KINOMEscan

The next assay concerns the target T6, DMPK (Homo sapiens, UniProt Q09013).
T6 construct: purchased Eurofins DiscoverX KINOMEscan
T6 sequence (Q09013 1-629): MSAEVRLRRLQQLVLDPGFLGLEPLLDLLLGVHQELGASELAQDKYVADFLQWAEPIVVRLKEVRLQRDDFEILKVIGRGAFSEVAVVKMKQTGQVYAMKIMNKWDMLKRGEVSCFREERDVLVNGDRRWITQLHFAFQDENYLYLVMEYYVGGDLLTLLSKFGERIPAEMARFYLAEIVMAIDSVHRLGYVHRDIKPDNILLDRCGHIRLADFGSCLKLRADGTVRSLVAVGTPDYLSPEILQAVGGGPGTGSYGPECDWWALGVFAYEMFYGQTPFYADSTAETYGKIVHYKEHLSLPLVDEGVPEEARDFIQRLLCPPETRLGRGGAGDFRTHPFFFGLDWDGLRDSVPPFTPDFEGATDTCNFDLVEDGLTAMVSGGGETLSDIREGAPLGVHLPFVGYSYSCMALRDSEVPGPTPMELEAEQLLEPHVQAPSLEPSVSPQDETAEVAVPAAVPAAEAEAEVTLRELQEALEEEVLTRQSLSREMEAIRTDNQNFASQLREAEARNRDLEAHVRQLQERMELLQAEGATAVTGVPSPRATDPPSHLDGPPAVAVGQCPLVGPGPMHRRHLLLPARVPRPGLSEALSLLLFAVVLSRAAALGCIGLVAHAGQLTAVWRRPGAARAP

The target in a further assay is T7, MRCKB (Homo sapiens, UniProt Q9Y5S2).
T7 construct: purchased Eurofins DiscoverX KINOMEscan

For another assay, the target named is T8, PIP5K1C (Homo sapiens, UniProt O60331).
T8 construct: purchased Eurofins DiscoverX KINOMEscan

For another assay, the target named is T9, YES (Homo sapiens, UniProt P07947).
T9 construct: purchased Eurofins DiscoverX KINOMEscan

A further assay has as its target T10, NEK4 (Homo sapiens, UniProt P51957).
T10 construct: purchased Eurofins DiscoverX KINOMEscan

A further assay has as its target T11, CSNK1A1 (Homo sapiens, UniProt P48729).
T11 construct: purchased Eurofins DiscoverX KINOMEscan

The target of another assay is T12, BMPR1A (Homo sapiens, UniProt P36894).
T12 construct: purchased Eurofins DiscoverX KINOMEscan

Another assay addresses T13, ROS1 (Homo sapiens, UniProt P08922).
T13 construct: purchased Eurofins DiscoverX KINOMEscan

T2 sequence (Q9Y6M4 whole entry): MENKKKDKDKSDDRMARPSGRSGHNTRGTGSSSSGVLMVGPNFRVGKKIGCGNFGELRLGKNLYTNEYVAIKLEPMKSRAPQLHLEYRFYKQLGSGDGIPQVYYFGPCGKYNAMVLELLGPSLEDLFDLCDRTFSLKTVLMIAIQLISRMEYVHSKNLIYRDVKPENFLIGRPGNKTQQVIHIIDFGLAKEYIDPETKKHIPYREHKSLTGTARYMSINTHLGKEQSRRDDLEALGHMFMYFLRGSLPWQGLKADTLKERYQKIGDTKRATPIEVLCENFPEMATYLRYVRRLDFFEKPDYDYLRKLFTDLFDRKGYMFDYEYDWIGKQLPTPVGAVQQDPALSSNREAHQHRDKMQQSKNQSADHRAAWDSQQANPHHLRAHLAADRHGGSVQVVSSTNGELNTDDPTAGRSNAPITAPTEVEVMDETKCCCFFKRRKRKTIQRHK
T12 sequence (P36894 24-532): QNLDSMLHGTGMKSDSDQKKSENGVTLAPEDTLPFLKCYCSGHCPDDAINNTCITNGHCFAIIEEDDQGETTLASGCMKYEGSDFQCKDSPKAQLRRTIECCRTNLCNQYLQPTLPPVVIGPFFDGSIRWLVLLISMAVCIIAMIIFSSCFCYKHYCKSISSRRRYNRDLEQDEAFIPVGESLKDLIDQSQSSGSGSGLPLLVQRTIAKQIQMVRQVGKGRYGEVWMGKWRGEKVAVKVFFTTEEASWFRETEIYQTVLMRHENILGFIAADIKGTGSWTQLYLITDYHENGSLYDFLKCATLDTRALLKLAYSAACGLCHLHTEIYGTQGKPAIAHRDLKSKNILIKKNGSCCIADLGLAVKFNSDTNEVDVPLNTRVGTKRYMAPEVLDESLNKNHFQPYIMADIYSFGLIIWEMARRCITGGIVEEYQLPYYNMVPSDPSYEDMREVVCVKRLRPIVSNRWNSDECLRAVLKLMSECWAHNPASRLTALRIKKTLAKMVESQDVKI
T8 sequence (O60331 whole entry): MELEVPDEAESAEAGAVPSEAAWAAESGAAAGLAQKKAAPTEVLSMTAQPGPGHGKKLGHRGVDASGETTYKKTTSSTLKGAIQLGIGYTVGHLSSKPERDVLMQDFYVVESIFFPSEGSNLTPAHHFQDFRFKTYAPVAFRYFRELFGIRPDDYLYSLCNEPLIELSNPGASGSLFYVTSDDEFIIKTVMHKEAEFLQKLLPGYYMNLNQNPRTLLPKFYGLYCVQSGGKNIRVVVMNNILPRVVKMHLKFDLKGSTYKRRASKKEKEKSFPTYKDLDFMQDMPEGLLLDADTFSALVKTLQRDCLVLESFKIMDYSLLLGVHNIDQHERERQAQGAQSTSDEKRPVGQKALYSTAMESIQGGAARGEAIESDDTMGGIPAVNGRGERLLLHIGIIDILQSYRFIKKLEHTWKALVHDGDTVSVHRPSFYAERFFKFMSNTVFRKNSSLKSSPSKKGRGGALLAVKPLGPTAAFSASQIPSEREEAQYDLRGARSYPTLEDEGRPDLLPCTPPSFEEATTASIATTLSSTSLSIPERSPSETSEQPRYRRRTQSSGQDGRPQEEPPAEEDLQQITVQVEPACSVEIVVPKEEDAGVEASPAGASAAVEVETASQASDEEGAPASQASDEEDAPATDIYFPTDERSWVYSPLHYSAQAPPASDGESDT
T13 sequence (P08922 28-2347): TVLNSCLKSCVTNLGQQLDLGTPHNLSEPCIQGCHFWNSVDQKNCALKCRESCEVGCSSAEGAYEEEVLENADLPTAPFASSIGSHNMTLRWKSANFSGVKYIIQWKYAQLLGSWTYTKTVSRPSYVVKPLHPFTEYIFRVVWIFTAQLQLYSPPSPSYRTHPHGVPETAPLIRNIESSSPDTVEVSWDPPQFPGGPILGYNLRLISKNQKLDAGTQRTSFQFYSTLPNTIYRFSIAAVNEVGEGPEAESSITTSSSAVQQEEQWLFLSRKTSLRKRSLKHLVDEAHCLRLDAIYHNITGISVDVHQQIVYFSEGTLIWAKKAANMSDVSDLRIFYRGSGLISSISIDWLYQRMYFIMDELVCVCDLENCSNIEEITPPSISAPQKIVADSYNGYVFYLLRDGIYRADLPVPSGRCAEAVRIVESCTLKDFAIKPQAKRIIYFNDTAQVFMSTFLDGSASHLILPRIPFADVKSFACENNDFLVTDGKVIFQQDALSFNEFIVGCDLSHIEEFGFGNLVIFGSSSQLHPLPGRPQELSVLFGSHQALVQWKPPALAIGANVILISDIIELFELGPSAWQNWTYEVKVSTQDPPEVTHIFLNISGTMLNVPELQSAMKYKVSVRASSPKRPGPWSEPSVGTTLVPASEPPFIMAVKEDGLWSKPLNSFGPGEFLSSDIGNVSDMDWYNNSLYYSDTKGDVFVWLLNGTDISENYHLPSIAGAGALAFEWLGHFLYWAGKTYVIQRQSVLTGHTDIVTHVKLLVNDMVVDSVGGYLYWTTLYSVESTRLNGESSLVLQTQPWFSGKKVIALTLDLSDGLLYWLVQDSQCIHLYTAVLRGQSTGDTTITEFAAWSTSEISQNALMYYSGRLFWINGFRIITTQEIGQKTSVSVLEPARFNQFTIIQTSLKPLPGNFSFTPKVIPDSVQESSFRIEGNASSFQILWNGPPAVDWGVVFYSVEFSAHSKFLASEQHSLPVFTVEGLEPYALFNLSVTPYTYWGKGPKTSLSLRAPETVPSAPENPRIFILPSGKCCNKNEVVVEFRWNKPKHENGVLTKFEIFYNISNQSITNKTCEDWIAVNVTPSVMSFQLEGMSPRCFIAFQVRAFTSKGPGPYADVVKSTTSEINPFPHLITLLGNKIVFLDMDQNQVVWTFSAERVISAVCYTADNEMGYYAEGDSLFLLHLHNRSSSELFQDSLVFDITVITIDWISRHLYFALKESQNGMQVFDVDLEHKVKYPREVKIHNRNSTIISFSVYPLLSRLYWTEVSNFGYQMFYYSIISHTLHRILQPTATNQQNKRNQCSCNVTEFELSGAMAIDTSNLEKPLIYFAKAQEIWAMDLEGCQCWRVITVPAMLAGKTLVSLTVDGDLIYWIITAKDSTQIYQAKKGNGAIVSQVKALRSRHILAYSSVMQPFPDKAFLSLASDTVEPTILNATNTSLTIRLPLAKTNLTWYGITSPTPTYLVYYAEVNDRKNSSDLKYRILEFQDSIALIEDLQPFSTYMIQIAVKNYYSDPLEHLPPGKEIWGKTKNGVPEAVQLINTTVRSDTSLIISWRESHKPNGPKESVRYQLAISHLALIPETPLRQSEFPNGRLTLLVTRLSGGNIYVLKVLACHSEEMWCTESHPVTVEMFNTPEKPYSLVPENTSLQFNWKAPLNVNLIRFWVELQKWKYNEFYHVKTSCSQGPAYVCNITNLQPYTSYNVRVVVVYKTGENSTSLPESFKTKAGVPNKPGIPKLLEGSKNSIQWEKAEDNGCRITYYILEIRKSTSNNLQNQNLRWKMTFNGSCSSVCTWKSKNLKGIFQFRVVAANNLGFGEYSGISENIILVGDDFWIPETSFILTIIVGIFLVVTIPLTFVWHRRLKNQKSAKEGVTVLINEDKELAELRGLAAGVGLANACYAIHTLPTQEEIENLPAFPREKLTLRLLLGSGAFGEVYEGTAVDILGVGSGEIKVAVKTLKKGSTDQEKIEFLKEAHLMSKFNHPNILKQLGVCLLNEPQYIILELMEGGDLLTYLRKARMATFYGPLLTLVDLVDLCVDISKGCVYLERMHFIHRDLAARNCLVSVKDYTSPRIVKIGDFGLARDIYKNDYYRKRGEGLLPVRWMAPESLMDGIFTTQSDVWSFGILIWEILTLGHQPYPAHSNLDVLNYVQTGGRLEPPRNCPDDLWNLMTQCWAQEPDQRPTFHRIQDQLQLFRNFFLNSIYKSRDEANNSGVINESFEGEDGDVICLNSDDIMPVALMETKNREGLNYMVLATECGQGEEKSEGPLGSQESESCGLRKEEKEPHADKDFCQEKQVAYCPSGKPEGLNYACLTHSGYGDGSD
T11 sequence (P48729 whole entry): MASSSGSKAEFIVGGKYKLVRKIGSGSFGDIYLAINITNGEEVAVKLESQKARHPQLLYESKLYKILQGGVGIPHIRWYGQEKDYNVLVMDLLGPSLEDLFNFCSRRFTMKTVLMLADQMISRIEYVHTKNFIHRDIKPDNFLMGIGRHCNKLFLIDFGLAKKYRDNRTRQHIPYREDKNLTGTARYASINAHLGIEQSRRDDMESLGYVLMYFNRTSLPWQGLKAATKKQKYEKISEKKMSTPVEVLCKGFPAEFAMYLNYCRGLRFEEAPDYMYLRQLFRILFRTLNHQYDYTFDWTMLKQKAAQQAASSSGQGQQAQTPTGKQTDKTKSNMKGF
T9 sequence (P07947 whole entry): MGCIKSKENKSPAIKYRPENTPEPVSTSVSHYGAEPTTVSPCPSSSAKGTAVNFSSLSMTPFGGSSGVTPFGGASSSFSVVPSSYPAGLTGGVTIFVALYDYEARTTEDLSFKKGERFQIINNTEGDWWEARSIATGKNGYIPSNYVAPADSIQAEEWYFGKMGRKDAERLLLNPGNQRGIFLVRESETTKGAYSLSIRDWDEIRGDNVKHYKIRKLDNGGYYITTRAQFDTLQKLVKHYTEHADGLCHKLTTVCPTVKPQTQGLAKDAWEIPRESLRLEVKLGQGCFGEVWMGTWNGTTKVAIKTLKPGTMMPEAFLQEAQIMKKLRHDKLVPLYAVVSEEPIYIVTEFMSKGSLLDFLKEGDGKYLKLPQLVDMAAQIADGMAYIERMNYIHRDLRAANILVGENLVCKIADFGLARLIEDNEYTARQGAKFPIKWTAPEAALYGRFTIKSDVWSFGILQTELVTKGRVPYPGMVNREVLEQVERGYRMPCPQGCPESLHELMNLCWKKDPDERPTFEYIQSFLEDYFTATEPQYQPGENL

Consider `Clc1cc(NCC2CC2)c2ncc(-c3ccc4[nH]ncc4c3)n2n1` [compound 2, 6-Chloro-N-(cyclopropylmethyl)-3-(1H-indazol-5-yl)imidazo[1,2-b]pyridazin-8-amine], for which the remaining binding at 1 µM at FYN stood at 95%; on CSNK1G3 it was 100%; at EPHA3, 78%; at SGK it was 91%; on MARK2, 96%; on DMPK, 84%. The remaining binding at 1 µM stood at 64% on MRCKB; 85% at PIP5K1C; 91% at YES; 99% on NEK4; 100% at CSNK1A1; 95% at BMPR1A. Further, on ROS1, the remaining binding at 1 µM was 100%.
In the case of `O=C(CN1CCOCC1)N[C@H]1CC[C@H](Nc2cc(Cl)nn3c(-c4ccc5[nH]ncc5c4)cnc23)CC1` [compound 26], the remaining binding at 1 µM worked out at 96% at FYN; 100% on CSNK1G3; 88% at EPHA3; 94% on SGK; 88% on MARK2; 99% at DMPK. Moreover, the remaining binding at 1 µM at MRCKB turned out to be 97%; on PIP5K1C, 91%; at YES, 93%; at NEK4, 100%; on CSNK1A1 it was 58%; on BMPR1A it was 86%. In addition, the remaining binding at 1 µM at ROS1 was determined as 100%.
As to `CN1CCC(CNc2cc(Cl)nn3c(-c4cc5nc(Nc6ccccc6)[nH]c5cc4F)cnc23)CC1` [compound 31, 6-Chloro-3-(6-fluoro-2-(phenylamino)-1H-benzo[d]imidazol-5-yl)-N-((1-methylpiperidin-4-yl)methyl)imidazo[1,2-b]pyridazin-8-amine], the remaining binding at 1 µM at FYN worked out at 98%; at CSNK1G3, 100%; at EPHA3 it was 100%; on SGK, 76%; at MARK2, 100%; at DMPK, 89%. For the same compound, the remaining binding at 1 µM on MRCKB was found to be 100%; on PIP5K1C it was 84%; on YES it was 96%; on NEK4, 95%; on CSNK1A1, 97%; at BMPR1A, 100%. Also, the remaining binding at 1 µM at ROS1 came to 96%.

These data come from article PMC6437697 (Journal of Medicinal Chemistry, 2019).
